{"source": "paper PMC6985185", "about": "(Breast cancer research and treatment, 2019)", "key": {"[1]": {"system": "uterus", "assay": "Uterine wet weight in LTED tumor bearing mice", "format": "in vivo, Nu:J mice", "settings": "ovariectomized LTED tumor bearing mice, after 4 weeks of treatment at the LTED study doses"}, "[2]": {"system": "TamR xenograft tumors", "assay": "TamR Study 2: growth of tamoxifen-resistant xenograft tumors under oral SERDs"}}}
{"compound": "C[C@@H]1Cc2c([nH]c3ccccc23)[C@@H](c2c(F)cc(/C=C/C(=O)O)cc2F)N1CC(C)(C)F", "note": "[AZD9496]", "values": [{"measurement": "Uterine wet weight (measure of uterine stimulation)", "setting": "[1]", "value": "significantly increased uterine weight"}, {"measurement": "% tumor growth inhibition of TamR tumors", "setting": "[2]; AZD9496 10 mg/kg po qd, day 0 of treatment", "value": "−3", "unit": "%"}, {"measurement": "% tumor growth inhibition of TamR tumors", "setting": "[2]; AZD9496 10 mg/kg po qd, day 2 of treatment", "value": 13, "unit": "%"}, {"measurement": "% tumor growth inhibition of TamR tumors", "setting": "[2]; AZD9496 10 mg/kg po qd, day 4 of treatment", "value": 18, "unit": "%"}, {"measurement": "% tumor growth inhibition of TamR tumors", "setting": "[2]; AZD9496 10 mg/kg po qd, day 7 of treatment", "value": 27, "unit": "%"}, {"measurement": "% tumor growth inhibition of TamR tumors", "setting": "[2]; AZD9496 10 mg/kg po qd, day 9 of treatment", "value": 24, "unit": "%"}, {"measurement": "% tumor growth inhibition of TamR tumors", "setting": "[2]; AZD9496 10 mg/kg po qd, day 11 of treatment", "value": 30, "unit": "%"}, {"measurement": "% tumor growth inhibition of TamR tumors", "setting": "[2]; AZD9496 10 mg/kg po qd, day 14 of treatment", "value": 31, "unit": "%"}, {"measurement": "% tumor growth inhibition of TamR tumors", "setting": "[2]; AZD9496 10 mg/kg po qd, day 16 of treatment", "value": 32, "unit": "%"}, {"measurement": "% tumor growth inhibition of TamR tumors", "setting": "[2]; AZD9496 10 mg/kg po qd, day 18 of treatment", "value": 36, "unit": "%"}, {"measurement": "% tumor growth inhibition of TamR tumors", "setting": "[2]; AZD9496 10 mg/kg po qd, day 21 of treatment", "value": 43, "unit": "%"}, {"measurement": "% tumor growth inhibition of TamR tumors", "setting": "[2]; AZD9496 10 mg/kg po qd, day 23 of treatment", "value": 47, "unit": "%"}, {"measurement": "% tumor growth inhibition of TamR tumors", "setting": "[2]; AZD9496 10 mg/kg po qd, day 25 of treatment", "value": 46, "unit": "%"}, {"measurement": "% tumor growth inhibition of TamR tumors", "setting": "[2]; AZD9496 10 mg/kg po qd, day 28 of treatment", "value": 43, "unit": "%"}]}
{"compound": "CC/C(=C(/c1ccc(/C=C/C(=O)O)cc1)c1ccc2[nH]ncc2c1)c1ccc(F)cc1Cl", "note": "[GDC0810]", "values": [{"measurement": "Uterine wet weight (measure of uterine stimulation)", "setting": "[1]", "value": "significantly increased uterine weight"}, {"measurement": "% tumor growth inhibition of TamR tumors", "setting": "[2]; GDC0810 25 mg/kg po qd, day 0 of treatment", "value": "−5", "unit": "%"}, {"measurement": "% tumor growth inhibition of TamR tumors", "setting": "[2]; GDC0810 25 mg/kg po qd, day 2 of treatment", "value": 11, "unit": "%"}, {"measurement": "% tumor growth inhibition of TamR tumors", "setting": "[2]; GDC0810 25 mg/kg po qd, day 4 of treatment", "value": 22, "unit": "%"}, {"measurement": "% tumor growth inhibition of TamR tumors", "setting": "[2]; GDC0810 25 mg/kg po qd, day 7 of treatment", "value": 28, "unit": "%"}, {"measurement": "% tumor growth inhibition of TamR tumors", "setting": "[2]; GDC0810 25 mg/kg po qd, day 9 of treatment", "value": 27, "unit": "%"}, {"measurement": "% tumor growth inhibition of TamR tumors", "setting": "[2]; GDC0810 25 mg/kg po qd, day 11 of treatment", "value": 35, "unit": "%"}, {"measurement": "% tumor growth inhibition of TamR tumors", "setting": "[2]; GDC0810 25 mg/kg po qd, day 14 of treatment", "value": 32, "unit": "%"}, {"measurement": "% tumor growth inhibition of TamR tumors", "setting": "[2]; GDC0810 25 mg/kg po qd, day 16 of treatment", "value": 42, "unit": "%"}, {"measurement": "% tumor growth inhibition of TamR tumors", "setting": "[2]; GDC0810 25 mg/kg po qd, day 18 of treatment", "value": 51, "unit": "%"}, {"measurement": "% tumor growth inhibition of TamR tumors", "setting": "[2]; GDC0810 25 mg/kg po qd, day 21 of treatment", "value": 49, "unit": "%"}, {"measurement": "% tumor growth inhibition of TamR tumors", "setting": "[2]; GDC0810 25 mg/kg po qd, day 23 of treatment", "value": 53, "unit": "%"}, {"measurement": "% tumor growth inhibition of TamR tumors", "setting": "[2]; GDC0810 25 mg/kg po qd, day 25 of treatment", "value": 53, "unit": "%"}, {"measurement": "% tumor growth inhibition of TamR tumors", "setting": "[2]; GDC0810 25 mg/kg po qd, day 28 of treatment", "value": 52, "unit": "%"}]}
{"compound": "N#Cc1ccc(C(c2ccc(C#N)cc2)n2cncn2)cc1", "note": "[Letrozole, letrozole]", "values": [{"measurement": "Uterine wet weight (measure of uterine stimulation)", "setting": "[1]", "value": "no response of uterine weight"}]}
